The NIST ThermoML archive (doi:10.1021/je700266n)

Experiment: xn = mol fraction of the nth substance listed
Settings: 101 kPa, Liquid

CCCCn1cc[n+](C)c1.F[P-](F)(F)(F)(F)F [1-butyl-3-methylimidazolium hexafluorophosphate] + CC#N
mass density [kg/m3]
Settings | x1 = 0.1 | x1 = 0.1997 | x1 = 0.3001 | x1 = 0.4002 | x1 = 0.4995 | x1 = 0.5996 | x1 = 0.7001 | x1 = 0.8 | x1 = 0.8992 | x1 = 1
293.15 K | 974.06 | 1089.47 | 1167.16 | 1221.32 | 1261.57 | 1293.48 | 1318.51 | 1339.25 | 1356.81 | 1371.57
298.15 K | 969.05 | 1084.37 | 1162.48 | 1216.77 | 1257.1 | 1289.08 | 1314.15 | 1334.92 | 1352.54 | 1367.22
303.15 K | 963.9 | 1079.44 | 1157.73 | 1212.1 | 1252.55 | 1284.55 | 1309.69 | 1330.47 | 1348.19 | 1362.86
308.15 K | 958.79 | 1074.57 | 1153.01 | 1207.52 | 1248.07 | 1280.12 | 1305.51 | 1326.23 | 1343.83 | 1358.56
313.15 K | 953.96 | 1070.04 | 1148.67 | 1203.29 | 1243.97 | 1276.12 | 1301.33 | 1322.21 | 1339.74 | 1354.3
323.15 K | 943.95 | 1060.53 | 1139.57 | 1194.5 | 1235.37 | 1267.65 | 1292.68 | 1313.73 | 1331.33 | 1345.98
333.15 K | 933.35 | 1050.42 | 1129.8 | 1184.99 | 1226.09 | 1258.64 | 1283.91 | 1305.14 | 1323.02 | 1337.7
343.15 K | 923.24 | 1040.99 | 1120.72 | 1176.43 | 1217.82 | 1250.62 | 1276.41 | 1297.84 | 1315.94 | 1330.76

CCCCn1cc[n+](C)c1.F[P-](F)(F)(F)(F)F [1-butyl-3-methylimidazolium hexafluorophosphate] + c1ccccc1
mass density [kg/m3]
Settings | 293.15 K | 298.15 K | 303.15 K | 308.15 K | 313.15 K | 323.15 K | 333.15 K | 343.15 K
x1 = 0.34 | 1166.34 | 1161.8 | 1157.16 | 1152.56 | 1148.35 | 1139.5 | 1129.94 | 1120.87
x1 = 0.3995 | 1197.59 | 1193.15 | 1188.62 | 1184.16 | 1180.04 | 1171.45 | 1162.13 | 1153.45
x1 = 0.4999 | 1239.2 | 1234.86 | 1230.38 | 1226.01 | 1222.02 | 1213.65 | 1204.95 | 1196.96
x1 = 0.5999 | 1274.25 | 1269.99 | 1265.61 | 1261.3 | 1257.39 | 1249.14 | 1240.67 | 1233.13
x1 = 0.7 | 1304.29 | 1299.95 | 1295.6 | 1291.34 | 1287.35 | 1279.03 | 1270.76 | 1263.66
x1 = 0.8003 | 1329.79 | 1325.97 | 1321.58 | 1317.28 | 1313.09 | 1304.76 | 1296.68 | 1289.79
x1 = 0.9001 | 1351.51 | 1347.29 | 1342.85 | 1338.55 | 1334.45 | 1326.2 | 1317.85 | 1310.77
x1 = 1 | 1371.57 | 1367.22 | 1362.86 | 1358.56 | 1354.3 | 1345.98 | 1337.7 | 1330.76

CCCCn1cc[n+](C)c1.F[B-](F)(F)F [1-butyl-3-methylimidazolium tetrafluoroborate] + CC#N
mass density [kg/m3]
Settings | x1 = 0.1 | x1 = 0.1997 | x1 = 0.3 | x1 = 0.4005 | x1 = 0.4995 | x1 = 0.6015 | x1 = 0.6998 | x1 = 0.799 | x1 = 0.9012 | x1 = 1
293.15 K | 913.54 | 993.5 | 1047.76 | 1086.95 | 1116.42 | 1138.87 | 1156.73 | 1171.64 | 1185.23 | 1195.71
298.15 K | 908.78 | 989.03 | 1043.55 | 1082.89 | 1112.51 | 1135.03 | 1152.98 | 1167.96 | 1181.58 | 1192.07
303.15 K | 903.94 | 984.51 | 1039.25 | 1078.74 | 1108.44 | 1131.08 | 1149.11 | 1164.16 | 1177.8 | 1188.37
308.15 K | 899.1 | 980.03 | 1034.99 | 1074.62 | 1104.46 | 1127.17 | 1145.29 | 1160.39 | 1174.09 | 1184.72
313.15 K | 894.51 | 975.82 | 1031.1 | 1070.84 | 1100.65 | 1123.64 | 1141.82 | 1157 | 1170.73 | 1181.43
323.15 K | 885.05 | 967.07 | 1022.86 | 1062.98 | 1093.19 | 1116.23 | 1134.55 | 1149.88 | 1163.8 | 1174.49
333.15 K | 874.91 | 957.71 | 1013.98 | 1054.45 | 1084.93 | 1108.14 | 1126.63 | 1142.09 | 1156.07 | 1166.89
343.15 K | 866.42 | 948.85 | 1005.39 | 1046.32 | 1077.27 | 1100.67 | 1119.31 | 1134.92 | 1149.06 | 1159.97

CCCCn1cc[n+](C)c1.F[B-](F)(F)F [1-butyl-3-methylimidazolium tetrafluoroborate] + CCCO
mass density [kg/m3]
Settings | 293.15 K | 298.15 K | 303.15 K | 308.15 K | 313.15 K | 323.15 K | 333.15 K | 343.15 K
x1 = 0.3999 | 1054.66 | 1051.03 | 1047.17 | 1043.37 | 1039.88 | 1032.41 | 1024.28 | 1016.75
x1 = 0.4498 | 1072.68 | 1068.9 | 1065.03 | 1061.22 | 1057.72 | 1050.32 | 1042.29 | 1034.83
x1 = 0.5001 | 1089.08 | 1085.28 | 1081.39 | 1077.57 | 1074.09 | 1066.73 | 1058.77 | 1051.38
x1 = 0.6001 | 1117.7 | 1113.99 | 1110.15 | 1106.39 | 1103.01 | 1095.73 | 1087.82 | 1080.57
x1 = 0.6978 | 1141.41 | 1137.71 | 1133.91 | 1130.15 | 1126.78 | 1119.64 | 1111.83 | 1104.68
x1 = 0.8002 | 1163 | 1159.35 | 1155.61 | 1151.92 | 1148.61 | 1141.54 | 1133.81 | 1126.78
x1 = 0.9003 | 1180.65 | 1176.99 | 1173.25 | 1169.56 | 1166.26 | 1159.25 | 1151.58 | 1144.59
x1 = 1 | 1195.71 | 1192.07 | 1188.37 | 1184.72 | 1181.43 | 1174.49 | 1166.89 | 1159.97
